The values below are quoted from earlier work in patent US20240065974A1, “ORAL THIN FILM” (LTS Lohmann Therapie-Systeme AG, priority 2021, published 2024).

Molecules are shown by their SMILES.

The conditions of the data set: compared with (R)-ketamine.

As to `CNC1(c2ccccc2Cl)CCCCC1=O` (racemic) [(S)-ketamine, (S)-(±)-2-(2-chlorophenyl)-2-(methylamino)cyclohexan-1-one], the “Analgesic and anaesthetic potency relative to the (R) form” value is “approximately three times higher”.
